According to patent US20240208998A1, “COMPOUNDS FOR USE IN THE TREATMENT OF HYPERPROLIFERATIVE DISORDERS” (FUNDACIÓ PRIVADA INSTITUT D'INVESTIGACIÓ ONCOLÓGICA DE VALL …, priority 2021, published 2024):

Biological target: TET2 (Homo sapiens (Human), UniProt Q6N021)
Test: Determination of TET2 activity in cell (5-hmC dot-blot, TET2-transfected HEK293T cells)
Assay type: cell-based
Conditions: 10 μM compound, HEK293T transfected with pCMV6-TET2, 48 h after transfection; in reference to vehicle, corrected with example 1 condition
Method: The HEK293T cell line was grown in Dulbecco's Modified Eagle Medium (DMEM) containing 10% (v/v) fetal bovine serum (FBS) and 1% (v/v) penicillin-streptomycin (P/S).
Twenty-four hours prior transfection, 3×10^6 HEK293T cells were seeded in p100 dishes previously coated with 0.001% of poly (1-lysine). One hour before transfection, a 10 μM solution of each compound was prepared in complete medium and 9 mL was added by medium replacement in one p100 dish (by duplicate). A solution of complete medium with DMSO was used as a vehicle control. Then, a transfection mix was prepared diluting 8 μg of pCMV6-TET2 expression vector (ID: RC226438, Origene) with 32 μg of polyethylenimine (PEI 25000, Polysciences, Inc.) in a 150 mM NaCl solution per p100 plate. After 15 min of incubation at rt, 1 mL of the transfection mix was added to each p100 plate. Next day, medium was replaced with a fresh diluted compound solution (10 mL/p100 dish). Forty-eight hours after transfection, cells were trypsinized and pelleted. Each pellet was suspended in 500 μL of DNA lysis buffer (50 mM Tris-HCl pH 8, 10 mM EDTA pH 8, 0.1% Triton X-100, 0.5% Tween-20, 400 μg/mL Proteinase K, 50 μg/mL RNAse), and incubated overnight at 56° C. in a thermal mixer. Next day, genomic DNA (gDNA) was extracted from each sample following a standard phenol-chloroform extraction method.
For each sample, 2 μg of gDNA was diluted in 50 μL of H2O. Then, 50 μL of 2X Denature solution (0.8 M NaOH, 20 mM EDTA) was added to each sample and incubated at 95° C. for 10 min. Samples were immediately placed on ice to cool and mixed with 100 μL of cold 2X Neutralize buffer (2 M ammonium acetate pH 7). Then, samples were incubated on ice for 10 min. DNA two-fold serial dilutions were prepared by mixing 100 μL of each sample with 100 μL of H2O in the next well, and so on. A total of 7 serial dilutions were set up. One hundred microliters of each sample and their respective dilutions were spotted on a positively charged nylon membrane (Amersham Hybond-N+, GE healthcare) in an assembled Bio-Dot apparatus (Bio-Rad). Samples were washed adding 400 μL of 0.4 M NaOH in each well. Then, blotted membrane was removed from the Bio-Dot apparatus and washed with 2×SSC buffer (0.3 M NaCl, 30 mM sodium citrate) for 5 min, air dried for 15 min, and UV-crosslinked (energy 120,000 μJ/cm^2) for 1 min. Afterwards, the blotted membrane was blocked with Blocking solution (5% non-fat milk, 0.1% Tween-20 in PBS1X) for 1 h at rt. Then, the membrane was incubated with the 5-hmC (5-hydroxymethylcytosine) primary antibody (#39769, Active Motif) diluted 1/10,000 in Blocking solution for 1 h at rt. Next, membrane was washed three times for 5 min in PBS1X and incubated with the anti-rabbit-HRP secondary antibody diluted 1/5,000 in blocking solution for 1 h at rt. Finally, the membrane was washed three times for 5 min in PBS1X, developed with SuperSignal West Pico Chemiluminescent Substrate (ThermoFisher Scientific), and exposed to autoradiography films (Fujifilm).
Each dot-blot membrane allows the evaluation of up to 6 different conditions (in duplicate) at the same time. Among these 6 different conditions there is always the condition of the vehicle and our compound of example 1, so in the end we evaluated 4 new compounds per membrane. The density intensity of each dot was quantified using the Image J software. […] Fold-change was calculated in reference to the vehicle condition and corrected with the example 1 condition for each dot-blot membrane.

Structure (SMILES)	Fold change (amount of 5-hmC)
Cc1[nH]c2ccccc2c1-c1nc(NC(=O)Cc2cn3ccsc3n2)sc1C [Example 4, 2-(imidazo[2,1-b]thiazol-6-yl)-N-[5-methyl-4-(2-methyl-1H-indol-3-yl)thiazol-2-yl]acetamide]	9.2
Cc1[nH]c2ccccc2c1-c1csc(NC(=O)Cc2c[nH]c3ccc(F)cc23)n1 [Example 12, 2-(5-fluoro-1H-indol-3-yl)-N-[4-(2-methyl-1H-indol-3-yl)thiazol-2-yl]acetamide]	16.0
Cc1[nH]c2ccccc2c1-c1csc(NC(=O)Cc2cc(Br)cs2)n1 [Example 19, 2-(4-bromothiophen-2-yl)-N-[4-(2-methyl-1H-indol-3-yl)thiazol-2-yl]acetamide]	8.4

Continued, values first:

Fold change (amount of 5-hmC)	Structure (SMILES)
11.6	Cc1[nH]c2ccccc2c1-c1csc(NC(=O)Cc2c[nH]c3ccccc23)n1 [Example 13, 2-(1H-indol-3-yl)-N-[4-(2-methyl-1H-indol-3-yl)thiazol-2-yl]acetamide]
15.3	Cc1[nH]c2ccccc2c1-c1csc(NC(=O)Cc2c[nH]c3ccc(O)cc23)n1 [Example 21, 2-(5-hydroxy-1H-indol-3-yl)-N-[4-(2-methyl-1H-indol-3-yl)thiazol-2-yl]acetamide]
